Reference: PubChem BioAssay AID2060488 (Molecular Pharmacology Branch, DTP, NCI, 2025)
Values joined by “and” are separate entries in the source; they are usually repeats but may differ in a detail not shown here. Equal entries are not always repeated. Each block holds one compound with its values, some of them ahead of it.

System: 966289-007-R4-J1-PDC complex spheroid viability
Assay: Anticancer human tumor 966289-007-R4-J1-PDC patient-derived pancreatic adenocarcinoma cell line growth inhibition [GQUAD]
Details: for viability, T/C: stronger effect = lower value
Description: DNA G-quadruplex Stabilizer Agents in Combinations in Complex Spheroids
A high-throughput screen of multi-cell type tumor spheroids was designed to identify active combinations of DNA G-quadruplex stabilizer agents and targeted small molecules. Complex spheroids include a stromal component modeled by human endothelial cells (HUVEC) and fibroblasts modeled by human mesenchymal stem cells (MSCs). The concentration ranges selected for each drug and investigational agent were based upon clinically achievable concentrations if the clinical Cmax of the agent was known.
Compounds. The drugs and investigational agents: pidnarulex (CX-5461; NSC782164), APTO-253 (NSC789042), BRACO-19 (NSC847499), peposertib (NSC802822), ceralasertib (NSC780249), elimusertib (NSC800525), camonsertib (NSC841442), AZD-1390 (NSC803789), olaparib (NSC753686), talazoparib (NSC767125), ART-558 (NSC835418), sotorasib (NSC818433), MRTX-1133 (NSC836407), SN-38 (NSC673596), topotecan (NSC609699), etoposide (NSC141540), doxorubicin (NSC123127), gemcitabine (NSC613327), 5-fluorouracil (NSC19893), paclitaxel (NSC125973), vemurafenib (NSC761431), panobinostat (NSC761190), R-306465 (JNJ-16241199; NSC773264), adavosertib (NSC754352), TP-3654 (NSC805149), carboplatin (NSC241240), KSQ-4279 (NSC840948), and staurosporine (NSC755774) were obtained from the National Cancer Institute (NCI) Developmental Therapeutics Program Chemical Repository (34). The FDA-approved anticancer drug set is available from the NCI Developmental Therapeutics Program. […] The stock solutions were prepared in dimethyl sulfoxide (DMSO, Sigma-Aldrich, St. Louis, MO, cat. D2650) at 800-fold the tested concentration and stored at -70 degrees C prior to their use. All drugs and investigational agents were tested over a range starting from a high concentration at or near the clinical Cmax and decreasing in half-log increments. If the clinical Cmax for an agent had not been determined, the highest concentration tested was 10 microM.
2.3 Cell Culture. All cells were maintained in an incubator at 37 degrees C and 5% CO2 with 95% humidity. The PDC lines were cultured according to standard operating procedures established by the NCI PDMR. All PDCs were thawed and cultured in Matrigel-coated flasks prepared with a working solution of 1X Ham's F-12 nutrient mix, without supplementation (Invitrogen, cat. 11765054), 100 U/mL penicillin-streptomycin (Invitrogen, cat. 15140122), and 2.5% Matrigel (Corning Inc., cat. 354248) for the first three passages. The 857933-349-R-J2-PDC line was cultured in 6C/Colon 1B media, which includes advanced DMEM/F-12 (Thermo Fisher Scientific, cat. 12634028), 10 mM HEPES (Thermo Fisher Scientific, cat. 15630080), 1X GlutaMAX supplement (Thermo Fisher Scientific, cat. 35050061), 0.1 mg/mL primocin (InvivoGen, cat. ant-pm-2), 10% defined fetal bovine serum, heat inactivated (HyClone Laboratories Inc., cat. SH30070.03HI), 50% L-WRN conditioned media (ATCC, cat. CRL-3276), 1.25 mM N-Acetyl-L-cysteine (Sigma-Aldrich, cat. A9165), 10 mM nicotinamide (Sigma-Aldrich, cat. N0636), 1X B-27 supplement (Thermo Fisher Scientific, cat. 17504044), 1X N-2 supplement (Thermo Fisher Scientific, cat. 17502048), 10 microM Y-27632 dihydrochloride (Tocris Bioscience, cat. 1254), and 50 ng/mL human EGF recombinant protein (Thermo Fisher Scientific, cat. PHG0311). The 485176-168-R4-J1-PDC line was cultured in Panc media, which includes all 6C/Colon 1B media components plus 100 ng/mL human FGF-10 (Thermo Fisher Scientific, cat. 100-26), 500 nM SB-431542 (Selleckchem, cat. S1067), and gastrin (Tocris, cat. 3006).
[…]
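Also: spheroids exposed to the agents for seven days before readout.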
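For viability, T/C in this document: percent viability relative to DMSO vehicle control wells taken as 100%.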

- IC50 (curve of compound): > 10000 nM
Compound: C#Cc1c(F)ccc2cc(O)cc(-c3ncc4c(N5CC6CCC(C5)N6)nc(OCC56CCCN5CC(F)C6)nc4c3F)c12 (stereo unspecified)
- viability, T/C (compound 0.0316 µM): 97.1% and 95.7%
- viability, T/C (compound 0.1 µM): 112% and 91.4%
- viability, T/C (compound 0.316 µM): 104% and 100%
- viability, T/C (compound 1 µM): 102% and 97.3%
- viability, T/C (compound 3.16 µM): 108% and 98.6%
- viability, T/C (compound 10 µM): 113% and 95.9%

- IC50 (curve of compound): > 10000 nM
Compound: C=CC(=O)N1CCN(c2nc(=O)n(-c3c(C)ccnc3C(C)C)c3nc(-c4c(O)cccc4F)c(F)cc23)C(C)C1 (stereo unspecified)
- viability, T/C (compound 0.0316 µM): 102% (2×) and 99.4%
- viability, T/C (compound 0.1 µM): 102% and 99.7% and 98.1%
- viability, T/C (compound 0.316 µM): 104% and 94.3% and 95.7%
- viability, T/C (compound 1 µM): 90% and 101% and 75.8%
- viability, T/C (compound 3.16 µM): 97.5% and 106% and 100%
- viability, T/C (compound 10 µM): 110% and 108% and 116%

- IC50 (curve of compound): 1840 nM and 1910 nM and 1580 nM
Compound: C=CCn1c(=O)c2cnc(Nc3ccc(N4CCN(C)CC4)cc3)nc2n1-c1cccc(C(C)(C)O)n1
- viability, T/C (compound 0.0316 µM): 102% and 99.9% and 97.9%
- viability, T/C (compound 0.1 µM): 105% and 97.2% and 108%
- viability, T/C (compound 0.316 µM): 110% and 113% and 120%
- viability, T/C (compound 1 µM): 101% and 105% and 81.8%
- viability, T/C (compound 3.16 µM): 4.65% and 8.05% and 2.6%
- viability, T/C (compound 10 µM): 1.72% and 1.84% and 1.48%

- IC50 (curve of compound): < 31.6 nM
Compound: CC(=O)O[C@H]1C(=O)[C@@]2(C)[C@H]([C@H](OC(=O)c3ccccc3)[C@]3(O)C[C@H](OC(=O)[C@H](O)[C@@H](NC(=O)c4ccccc4)c4ccccc4)C(C)=C1C3(C)C)[C@]1(OC(C)=O)CO[C@@H]1C[C@@H]2O
- viability, T/C (compound 0.0316 µM): 5.97% and 4.08%
- viability, T/C (compound 0.1 µM): 3.17% and 2.51%
- viability, T/C (compound 0.316 µM): 4.33% and 3.04%
- viability, T/C (compound 1 µM): 6.75% and 5.13%
- viability, T/C (compound 3.16 µM): 9.64% and 6.14%
- viability, T/C (compound 10 µM): 14.1% and 8.4%

- IC50 (curve of compound): > 10000 nM and 2890 nM and 2470 nM
Compound: CC(C)(O)C1CCC(Nc2ccc3ncc(-c4cccc(C(F)(F)F)c4)n3n2)CC1 (stereo unspecified)
- viability, T/C (compound 0.0316 µM): 105% and 92.3% and 96.8%
- viability, T/C (compound 0.1 µM): 100% and 95.3% and 106%
- viability, T/C (compound 0.316 µM): 98.5% and 95.1% and 91.2%
- viability, T/C (compound 1 µM): 93.8% and 90.5% and 107%
- viability, T/C (compound 3.16 µM): 42.9% and 43.5% and 36.2%
- viability, T/C (compound 10 µM): 75.9% and 49.8% and 33.1%

- IC50 (curve of compound): > 10000 nM
Compound: CC(C)n1c(=O)n(C)c2cnc3cc(F)c(-c4ccc(OCCCN5CCCCC5)nc4)cc3c21
- viability, T/C (compound 0.0316 µM): 101% and 103% and 95.4%
- viability, T/C (compound 0.1 µM): 103% and 106% (2×)
- viability, T/C (compound 0.316 µM): 114% and 106% and 102%
- viability, T/C (compound 1 µM): 107% and 105% and 114%
- viability, T/C (compound 3.16 µM): 107% (2×) and 116%
- viability, T/C (compound 10 µM): 86% and 88.6% and 91.8%

- IC50 (curve of compound): 163 nM and 231 nM and 176 nM
Compound: CC1COCCN1c1cc(-c2ccnn2C)c2ccnc(-c3ccn[nH]3)c2n1 (stereo unspecified)
- viability, T/C (compound 0.0316 µM): 112% and 106% and 104%
- viability, T/C (compound 0.1 µM): 75.1% and 95% and 82.1%
- viability, T/C (compound 0.316 µM): 15.9% and 32.8% and 16.8%
- viability, T/C (compound 1 µM): 6.65% and 12.3% and 6.94%
- viability, T/C (compound 3.16 µM): 4.32% and 6.18% and 4.41%
- viability, T/C (compound 10 µM): 3.06% and 4.67% and 3.7%

- IC50 (curve of compound): 141 nM and 115 nM and 170 nM
Compound: CC1COCCN1c1cc(C2(O)CC3CCC(C2)O3)c2cnn(-c3ccn[nH]3)c2n1 (stereo unspecified)
- viability, T/C (compound 0.0316 µM): 112% and 111% and 109%
- viability, T/C (compound 0.1 µM): 64.2% and 55% and 74.8%
- viability, T/C (compound 0.316 µM): 16.3% and 13.5% and 20.4%
- viability, T/C (compound 1 µM): 5.75% and 6.02% and 11.2%
- viability, T/C (compound 3.16 µM): 4.81% and 4.92% and 6.7%
- viability, T/C (compound 10 µM): 4.35% and 4.17% and 5.99%

- IC50 (curve of compound): 2850 nM and 4770 nM and 6110 nM
Compound: CC1COCCN1c1cc(C2(S(C)(=N)=O)CC2)nc(-c2ccnc3[nH]ccc23)n1 (stereo unspecified)
- viability, T/C (compound 0.0316 µM): 105% and 101% and 96.9%
- viability, T/C (compound 0.1 µM): 104% and 98.3% and 105%
- viability, T/C (compound 0.316 µM): 109% and 99.3% and 108%
- viability, T/C (compound 1 µM): 95.2% and 103% and 108%
- viability, T/C (compound 3.16 µM): 45.6% and 71.7% and 117%
- viability, T/C (compound 10 µM): 6.26% and 10.7% and 7.26%

- IC50 (curve of compound): 8170 nM and 7890 nM and 8200 nM
Compound: CCCS(=O)(=O)Nc1ccc(F)c(C(=O)c2c[nH]c3ncc(-c4ccc(Cl)cc4)cc23)c1F
- viability, T/C (compound 0.0316 µM): 109% and 105% and 99.4%
- viability, T/C (compound 0.1 µM): 102% and 96% and 99.5%
- viability, T/C (compound 0.316 µM): 111% (2×) and 97.8%
- viability, T/C (compound 1 µM): 110% and 106% and 114%
- viability, T/C (compound 3.16 µM): 114% (2×) and 108%
- viability, T/C (compound 10 µM): 37.5% and 36.5% and 38%

- IC50 (curve of compound): 46.5 nM and 53.5 nM and 31.9 nM
Compound: CC[C@@]1(O)C(=O)OCc2c1cc1n(c2=O)Cc2cc3c(CN(C)C)c(O)ccc3nc2-1
- viability, T/C (compound 0.000999 µM): 88.3% and 105% and 97.2%
- viability, T/C (compound 0.00316 µM): 92.3% and 95.7% and 100%
- viability, T/C (compound 0.00999 µM): 108% and 105% and 110%
- viability, T/C (compound 0.0316 µM): 74.9% and 90.5% and 50.4%
- viability, T/C (compound 0.0999 µM): 0.78% and 1.86% and 0.73%
- viability, T/C (compound 0.316 µM): 0.62% and 0.47% and 0.41%

- IC50 (curve of compound): < 0.999 nM
Compound: CCc1c2c(nc3ccc(O)cc13)-c1cc3c(c(=O)n1C2)COC(=O)[C@]3(O)CC
- viability, T/C (compound 0.000999 µM): 21.8% and 23.1% and 26.9%
- viability, T/C (compound 0.00316 µM): 0.79% and 0.89% and 0.66%
- viability, T/C (compound 0.00999 µM): 0.67% and 0.66% and 0.5%
- viability, T/C (compound 0.0316 µM): 0.8% and 0.6% and 0.43%
- viability, T/C (compound 0.0999 µM): 0.53% and 0.49% and 0.38%
- viability, T/C (compound 0.316 µM): 0.45% and 0.44% and 0.36%

- IC50 (compound alone, run of 03/26/2024): > 10000 nM
Compound: CN(C)c1ccc(Nc2c3ccc(NC(=O)CCN4CCCC4)cc3nc3cc(NC(=O)CCN4CCCC4)ccc23)cc1
- viability, T/C (compound 0.0316 µM): 104% [middle of 12 runs]
- viability, T/C (compound 0.1 µM): 107% [middle of 12 runs]
- viability, T/C (compound 0.316 µM): 108% [middle of 11 runs]
- viability, T/C (compound 1 µM): 108% [middle of 12 runs]
- viability, T/C (compound 3.16 µM): 98.7% [middle of 12 runs]
- viability, T/C (compound 10 µM): 99.8% [middle of 12 runs]
